Converted amounts (≈) assume the structure as drawn. Square brackets hold non-standard residues; d marks the D form. Peptide text beside a SMILES is read from it. * marks the point of attachment. NH(1-CH2NMe2-cBu) = CN(C)CC1(N*)CCC1; Benzoyl(4-F) = O=C(c1ccc(F)cc1)*; hCha = N[C@@H](CCC1CCCCC1)C(=O)O; Aib = CC(C)(N)C(=O)O; βAla = NCCC(=O)O
Experiments:
[1] = system: intracellular Leishmania donovani MHOM-ET-67/L82 amastigotes; assay: In vitro antiprotozoal assay, intracellular amastigotes; format: cell-based; settings: intracellular amastigotes; read-out: L.don.InMac IC50
Procedure: The testing of the inventive compounds against Leishmania donovani (strain MHOM/ET/67/L82) was performed in 96 well plates at concentrations in serial dilutions. Tests were done in triplicate.

[2] = system: Leishmania mexicana (MNYC/BZ/62/m379); assay: In vivo model of cutaneous leishmaniasis, rump back model in C67BLC/6 mice; settings: 20 μl 0.1% w/v in DMSO topically bid for 14 days
Source text: Mice. C67BLC/6 female mice were purchased from Envigo (Harlan laboratories) Indianapolis, IN, USA. 129SVE female mice were purchased from Taconic Farms, Cambridge City, IN, USA. All experimental mice were maintained at an OSU-ULAR facility in compliance with OSUIACUC.
Parasites and infection. L. mexicana (MNYC/BZ/62/m379) parasites were obtained and maintained as described previously. Promastigotes were maintained, passaged, and subsequently injected into experimental mice (5×10^6 parasites) subcutaneously into their shaven rumps. C67BLC/6 mice were infected with L. mexicana parasites for 6 weeks after which they developed lesions on their back rumps. Mice with similar lesion sizes were selected and randomized into control and treatment groups. From the beginning of treatment animals were housed individually.
Treatment. Treatment group received 20 μl of ZHAW6027 0.1% weight by volume in DMSO, twice a day (bid) for 14 days. […]
Topical drug treatments and lesion measurements. Lesion sizes were measured by using a small animal caliper twice weekly over the 14-day treatment duration and the area of the lesion was calculated by L×W, where L is the length and W is the width. […]
Quantitation of parasitic load. After 2 weeks of treatment animals were sacrificed, and the parasite load in the lesions was quantified. […] Viability of parasites was determined at 10 days of parasite culture. […]

[3] = system: Streptococcus agalactiae ATCC 12386; assay: MIC broth microdilution, method 1; format: cell-based; settings: CAMHB II, 5% LHB, 1 day at 36° C., 6027 acetate
[4] = system: Streptococcus pyogenes ATCC 19615; assay: MIC broth microdilution, method 1; format: cell-based; settings: CAMHB II, 5% LHB, 1 day at 36° C., 6027 acetate
[5] = system: Staphylococcus aureus ATCC BAA-1717; assay: microbe, parasite or virus in culture; format: cell-based; settings: ATCC BAA-1717, Methicillin resistant; CAMHB II, 1 day at 36° C.; 6027 acetate
[6] = system: Staphylococcus aureus ATCC BAA-1556; assay: microbe, parasite or virus in culture; format: cell-based; settings: ATCC BAA-1556
[7] = system: Staphylococcus aureus ECL 2963646; assay: microbe, parasite or virus in culture; format: cell-based
[8] = system: Staphylococcus aureus NARSA NRS119; assay: microbe, parasite or virus in culture; format: cell-based; settings: NARSA NRS119
[9] = system: Staphylococcus aureus NARSA NRS127; assay: microbe, parasite or virus in culture; format: cell-based; settings: NARSA NRS127
[10] = system: Staphylococcus aureus NARSA NRS382; assay: microbe, parasite or virus in culture; format: cell-based; settings: NARSA NRS382
[11] = system: Staphylococcus aureus NARSA NRS383; assay: microbe, parasite or virus in culture; format: cell-based; settings: NARSA NRS383
[12] = system: Staphylococcus aureus NARSA VRS2; assay: microbe, parasite or virus in culture; format: cell-based
[13] = system: Staphylococcus epidermidis ATCC 12228; assay: MIC broth microdilution, method 1; format: cell-based; settings: 6027 acetate
[14] = system: Staphylococcus aureus ATCC BAA-1556, USA300 MRSA; assay: microbe, parasite or virus in culture; format: cell-based; settings: ATCC BAA-1556
Procedure: Pre-formulated compound solution was diluted in 100% DMSO to prepare a 1.6 mg/mL working stock solution. […] The concentration range was 0.032 to 32 μg/mL.

[15] = system: Staphylococcus aureus ATCC 43300, MRSA; format: cell-based; settings: ATCC 43300, 18 h
Procedure: The antibacterial activity of inventive compounds was evaluated in duplicate in a further Minimum Inhibitory Concentration (MIC) assay.
Bacteria were cultured in Cation-adjusted Mueller Hinton broth (CAMHB) at 37° C. overnight. A sample of each culture was then diluted 40-fold in fresh broth and incubated at 37° C. for 1.5-3 h. The resultant mid-log phase cultures were diluted (CFU/mL measured by OD600), then added to each well of the compound containing plates, giving a cell density of 5×10^5 CFU/mL and a total volume of 50 μL. All the plates were covered and incubated at 37° C. for 18 h without shaking.
Samples were prepared in DMSO and serially diluted 2 fold 8 times. Each sample concentration was prepared in 384-well plates, non-binding surface plate (NBS; Corning 3640) for the bacterial strain ATCC 43300, MRSA. The final DMSO concentration was at a maximum of 0.5%.
Inhibition of bacterial growth was determined measuring absorbance at 600 nm (OD600), using a Tecan M1000 Pro monochromator plate reader. The percentage of growth inhibition was calculated for each well, using the negative control (media only) and positive control (bacteria without inhibitors) on the same plate as references. […] Vancomycin was used as positive bacterial inhibitor standards.

[16] = system: Trichophyton mentagrophytes (ATCC 9533); format: cell-based
Procedure: (§1) Pre-formulated compound solution was diluted in 100% DMSO to prepare a 1.6 mg/mL working stock solution. […] Test concentration range was 0.032 to 32 μg/mL.
(§2) Vehicle-control and an active reference agent were used as blank and positive controls.

[17] = system: Trichophyton rubrum (ATCC 10218); format: cell-based
Procedure: as §1, §2

[18] = system: Clostridium difficile ATCC BAA-1805; settings: RCM, anaerobic, 2 days at 36° C., 6027 acetate
Procedure: The antibacterial activity of inventive compounds was determined in duplicate in a Minimum Inhibitory Concentration (MIC) assay.
The antibacterial activity of 6027 acetate was measured using the in vitro broth microdilution assay under assay conditions described by the Clinical and Laboratory Standards Institute. […] Pre-formulated DMSO stock solution (26.67 mg/mL) was provided by sponsor. The 26.67 mg/mL stock solution was then diluted in DMSO to prepare a 6.4 mg/mL working stock solution. The 6.4 mg/mL working stock solution was diluted by 2-fold serial titrations in DMSO, for a total of 11 test concentrations. A 4 μl aliquot of each dilution was added to 196 of broth medium seeded with the organism suspension in wells of a 96 well plate (bacterial count: 2 −8×10^5 colony forming units/mL final). The final volume was 200 μl in each well and the final DMSO concentration was 2 percent. Test concentrations were 128 to 0.125 μg/mL.
Following incubation, the plates were visually examined, and wells were scored for growth or complete growth inhibition to define the minimum inhibitory concentration. […] Vehicle-control and Vancomycin or Linezolid, as depicted at Table 8, were used as blank and positive controls, respectively.

physchem = settings: octanol/water

CC(C)C[C@H](NC(=O)[C@H](CCC1CCCCC1)NC(=O)[C@@H]1CCCN1C(=O)c1ccc(F)cc1)C(=O)NC(C)(C)C(=O)N[C@@H](CC(C)C)C(=O)N[C@@H](CC(C)C)C(=O)NC(C)(C)C(=O)NC(C)(C)C(=O)NCCC(=O)NC1(CN(C)C)CCC1 [Compound 6027, (2S)-2-[(2S)-4-cyclohexyl-2-{[(2S)-1-(4-fluorobenzoyl)pyrrolidin-2-yl]formamido}butanamido]-N-(1-{[(1S)-1-{[(1S)-1-({1-[(1-{[2-({1-[(dimethylamino)methyl]cyclobutyl}carbamoyl)ethyl]carbamoyl}-1-methylethyl)carbamoyl]-1-methylethyl}carbamoyl)-3-methylbutyl]carbamoyl}-3-methylbutyl]carbamoyl}-1-methylethyl)-4-methylpentanamide] ({Benzoyl(4-F)}-P[hCha]L[Aib]LL[Aib][Aib][βAla]-{NH(1-CH2NMe2-cBu)})
IC50 [1]: 0.0542 µM
reduction of parasite loads in lesions compared to the control ([2]; limiting dilution assay, FIG. 2): about 3 orders of magnitude
volume of the induced CL lesions over time ([2]; vs vehicle (DMSO), where lesions increased, FIG. 1): gradually reduced
MIC of 6027 [3]: 1 µg/mL
MIC of 6027 [4]: 4 µg/mL
MIC of 6027 [5]: 1 µg/mL
MIC of 6027 [6]: 2 µg/mL
MIC of 6027 [7]: 2 µg/mL
MIC of 6027 [8]: 2 µg/mL
MIC of 6027 [9]: 2 µg/mL
MIC of 6027 [10]: 1 µg/mL
MIC of 6027 [11]: 2 µg/mL
MIC of 6027 [12]: 2 µg/mL
MIC of 6027 [13]: 2 µg/mL
MIC [14]: 1 µg/mL (≈ 0.847 µM)
MIC [15]: 2 µg/mL (≈ 1.69 µM)
T. mentagrophytes (ATCC 9533) MIC [16]: 16 µg/mL
T. rubrum (ATCC 10218) MIC [17]: 32 µg/mL
MIC of 6027 [18]: 0.25 µg/mL
logD (physchem): 4.56

— patent publication US20240174714A1, “TREATMENT OF SKIN DISORDERS” (priority 2021, published 2024)
